Test results as given in patent publication US7976582B2, “Bleaching of substrates” (Conopco, Inc., priority 2007, dated 2011).

What was measured:
[1] = Raw cotton bleaching, NaOH/H2O2 pretreatment without catalyst, then lower pH and add catalyst (Experiment 2)
Protocol: Raw cotton with a Berger Whiteness value of 5.5+/−1.0 was treated as follows: 6 grams of the cotton was immersed into temperature-controlled beaker glasses of a 60 ml solution (cloth/liquor ratio of 1/10), containing 0.5 g/l DTPA, 2 g/l Sandoclean PCJ, 2.3% H2O2 (equals to 6.66 ml (35%)/1; w/w wrt cotton), for 15 minutes at 75° C. Subsequently, sulphuric acid was added (1M) until the desired pH was added followed by 20 microM of [Mn2O3(Me3-TACN)2] (PF6)2.H2O and the mixture left for 15 minutes with continuous stirring. No NaOH solution was added during the bleaching process in the presence of catalyst. After the allocated time, the cloths are washed and dried as exemplified above. The values of the whiteness are expressed in Berger units, as defined above.
Table 2: Whiteness (Berger) results obtained using 20 microM [Mn2O3(Me3-TACN)2] (PF6)2.H2O in an unbuffered solution with 0.2 g/l DTPA at 75° C. for 15 minutes, after having the cloths allowed to pretreat with NaOH/H2O2 for 15 minutes at 75° C. (entry 1) vs adding the catalyst at the beginning of the bleaching experiment at pH 9.75.

[2] = Raw cotton bleaching, pH control by continuously adding NaOH (Experiment 1); conditions: for Whiteness (Berger) Wb: 20 microM catalyst, unbuffered, 0.2 g/l DTPA, H2O2, 80° C., 30 minutes
Protocol: Raw cotton with a Berger Whiteness value of 5.5+/−1.0 was treated as follows: 6 grams of the cotton was immersed into temperature-controlled beaker glasses a 60 ml solution (cloth/liquor ratio of 1/10) containing 20 microM of [Mn2O3(Me3-TACN)2] […]
Drops of NaOH (1M) were added to maintain the pH (within 0.2 pH units) for 30 minutes of agitated solutions at 75 to 80° C. The pH was monitored with a pH meter. Subsequently the cotton swatches were rinsed with 2 to 3 liters of hot demineralised water (80° C.), then washed with copious amounts of demineralised water, spun in a spin drier for 3 minutes and dried overnight under ambient conditions. The optical properties of the cloths were then measured using a Minolta spectrophotometer CM-3700d, using L, a, b values which are converted to Berger Whiteness values.
The values of the whiteness is expressed in Berger units. The formula of Berger whiteness is given below: Wberger=Y+a.Z−b.X, where a=3.448 and b=3.904.
The values X, Y, Z are the coordinates of the achromatic point.

[3] = 20° C.; cited from earlier work
[4] = Raw cotton bleaching, high starting pH left to reduce during bleaching (Experiment 3); conditions: 10 microM catalyst, H2O2, DTPA, 77° C., 30 minutes; pH(init) 10.7, pH(final) 9.7
Protocol: A batch of raw cotton with a Berger Whiteness value of 0 was treated as follows: 6 grams of the cotton was immersed into temperature-controlled beaker glasses a 60 ml solution (cloth/liquor ratio of 1/10) containing 10 microM of [Mn2O3(Me3-TACN)2] (PF6)2.H2O, 2.3% H2O2 (equals to 6.66 ml (35%)/l; w/w wrt cotton), 0.4 g/l H5-DTPA (ex Akzo-Nobel; trade name Dissolvine D50; purity is 50%), and 2 g/l Sandoclean PCJ (ex Clariant). The temperature of the experiment was 77° C.
The pH of water containing Sandoclean, Na5DTPA, cotton and appropriate amount of NaOH was determined at room temperature, heated to 77° C., the pH value was monitored and then hydrogen peroxide was added. Then a correction for the addition of hydrogen peroxide was made by adding some extra NaOH. Then the catalyst was added and left for 30 minutes under stirring. The cloths were then rinsed and washed as described above. The pH of the solution after the bleaching stage was determined after allowing the solution cooled down to room temperature. As a comparative experiment to determine the effect of the manganese-triazacyclononane compound, no catalyst was added. The values of the whiteness are expressed in Berger units, as defined above.

SMILES: CN1CCN(C)CCN(C)CC1.CN1CCN(C)CCN(C)CC1.F[P-](F)(F)(F)(F)F.F[P-](F)(F)(F)(F)F.O.[Mn+4].[Mn+4].[O-2].[O-2].[O-2] [[Mn2O3(Me3-TACN)2](PF6)2•H2O, [Mn2O3(Me3-TACN)2] (PF6)2.H2O]
- Whiteness (Berger) Wb ([1]; 20 microM catalyst, 0.2 g/l DTPA, 75° C., 15 minutes after 15 minutes NaOH/H2O2 pretreatment, pH(step 1) 11, pH(step2) 10, pH(final) 9.4): 60.0 Wb
- Whiteness (Berger) Wb ([1]; catalyst added at the beginning, no pretreatment, pH 9.75, pH(final) 7.6): 51.0 Wb
- Whiteness (Berger) Wb ([2]; pH(init) 9.75, pH(final) 7.3 (pH not controlled)): 51.0 Wb
- Whiteness (Berger) Wb ([2]; pH(init) 10.0, pH(final) 9.5 (pH controlled with NaOH)): 63.1 Wb
- Whiteness lower without DTPA than the system with DTPA ([2]; in the presence of catalyst, without DTPA added): about 10 Wb
- water solubility [3]: 10.8 g per liter
- Whiteness (Berger) Wb [4]: 57.6 Wb
